{"source": "patent US20130331326A1", "about": "“METHOD OF INDUCING HEMATOPOIETIC RECONSTRUCTION” (DUKE UNIVERSITY, priority 2011, published 2013)", "key": {"BM KSL cells [1]": {"test_system": "BM KSL cells", "assay": "Culture of 300 cGy-irradiated BM KSL cells with BM ECs or TSF cytokines; CFC and CFU-S12 recovery", "format": "cell-based, mouse", "method": "BM cells were collected into PBS (Cellgro, Manassas, Va.) with 10% fetal bovine serum (Hyclone, Logan, Utah) and 1% penicillin/streptomycin (GIBCO, Grand Island, N.Y.). Viable BM cells were quantified using Trypan Blue Stain (Lonza, Basel, Switzerland) to exclude apoptotic and dead cells. Cells were then incubated with anti-c-kit, anti-Sca-1, anti-lineage cocktail, anti-CD41, anti-CD48, and anti-CD150 antibodies (Biolegend and eBiosciences, San Diego, Calif.; BD, San Jose, Calif.) to measure ckit^+sca-1^+lin^− (KSL) progenitor cells or CD150′CD41^−CD48^−KSL (SLAM/KSL) as previously described (Kiel et al, Cell 121:1109-1121 (2005)). Colony forming cells (CFCs) and CFU-S12 assays were also performed to measure functional hematopoietic stem/progenitor cell content. For CFCs, either whole BM or cultured lineage−cells, or KSL cells were plated onto methylcellulose (StemCell Technologies, Vancouver, BC, Canada), and colonies were scored on day 14. 1×10^5 BM or 2×10^5 cells were collected from donor mice and injected via tail vein into recipient C57B16 mice that had been given 950 cGy TBI. At day +12 post-injection, spleens from recipient mice were harvested and stained with Bouin's fixative solution (Ricca Chemical Company, Arlington, Tex.), and colonies were counted as previously described (Till and MeRadiat. Res. 14:213-222 (1961)). Complete blood counts were performed on a HemaVet 950 (Drew Scientific, Dallas, Tex.). […]"}, "BM KSL cells [2]": {"test_system": "BM KSL cells", "assay": "Annexin V apoptosis assay of irradiated BM KSL cells in culture", "format": "cell-based, mouse", "conditions": "72 hours, vs cytokines alone", "method": "(§1) Cell apoptosis and necrosis were analyzed by flow cytometry according to manufacturer's protocols with Annexin V-FITC and 7-AAD staining (BD, San Jose, Calif.). […] Cells were fixed and permeabilized with Fix Buffer I and Perm Buffer III (BD), and then stained with mouse anti-phospho-AKT-S473 PE (BD) or isotype control. Cell cycle analysis was performed by flow cytometric analysis modified from previous reports (Jordan et al, Exp. Hematol. 24:1347-1355 (1996), Chute et al, Hum. Gene Ther. 11:2515-2528 (2000), Sungartz et al, Blood 119:1308-1309 (2012)). Briefly, cells were fixed and permeabilized with 0.25% Saponin (Calbiochem, La Jolla, Calif.), 2.5% paraformaldehyde, 2% FBS in 1×PBS, and then labeled with Ki67-FITC and 7-AAD (BD). BM lin^− cells from VavCre;EGFR^+/+ or VavCre;EGER^fl/fl were cultured with TSF or TSF+10 μM erlotinib, or TSF following 300 cGy for 72 hours, and then collected for total cell counts and CFCs analysis."}, "BM KSL cells [3]": {"test_system": "BM KSL cells", "assay": "Cell cycle analysis (Ki67/7-AAD) of irradiated BM KSL cells", "format": "cell-based, mouse", "method": "as §1"}, "CD45+MECA- BM cells": {"test_system": "CD45+MECA- BM cells", "assay": "Annexin+ BM hematopoietic cells in mice after 700 cGy TBI", "format": "in vivo, mouse", "conditions": "systemic EGF x 7 days, day +7, vs saline", "method": "FIGS. 7A-7G. […] (FIG. 7B) Mean percentage of Annexin^+ Tie2Cre;Bak1^−/−;Bax^Fl/−. […] Non-irradiated BM KSL cells reside predominantly in the G0 (white). G1 light gray, G2/S/M=dark gray. *P=0.002 vs TSF for G0 and ̂P=0.002 vs TSF for G2/S/M, respectively (means±SEM, n=3-5/group). […] The majority of non-irradiated cells were in G0 (white). […] The Mann-Whitney test was utilized for all comparisons unless otherwise noted.\nas §1"}, "AKT-S473": {"test_system": "AKT-S473", "assay": "Phosphorylation of AKT-S473 in irradiated BM KSL cells", "format": "cell-based, mouse", "conditions": "EGF treatment of irradiated BM KSL cells in culture, within 15 minutes, vs TSF alone", "method": "as §1"}, "[4]": {"conditions": "20 ng/mL EGF added to non-contact FL/+ EC cultures of 300 cGy-irradiated BM KSL cells, vs FL/+ ECs alone"}, "[5]": {"conditions": "EGF added to irradiated BM KSL cells cultured with cytokines (TSF), day 7, vs cytokines alone"}, "[6]": {"conditions": "300 cGy, cytokines + EGF, 72 hours of culture"}}, "note": "Entries after “also recorded” stand apart in the source; their conditions may differ.", "data": [{"substance": "EGF: epidermal growth factor; recombinant EGF (R&D Systems)", "values": [{"measurement": "increase in CFCs recovered at day 7", "setting": "BM KSL cells [1]; [4]", "result": 2.2, "unit": "fold"}, {"measurement": "increase in CFU-S12 recovered at day 7", "setting": "BM KSL cells [1]; [4]", "result": 2.6, "unit": "fold"}, {"measurement": "recovery of CFCs in culture", "setting": "BM KSL cells [1]; 300 cGy BM KSL cells from Tie2Cre;Bak1-/-;BaxFl/- mice, TSF + 20 ng/ml EGF, 72 hours, vs cytokines alone", "result": "increased CFCs; also recorded: increase in recovery of CFCs"}, {"measurement": "increase in CFCs", "setting": "BM KSL cells [1]; [5]", "result": 3, "unit": "fold"}, {"measurement": "increase in CFU-S12", "setting": "BM KSL cells [1]; [5]", "result": 4, "unit": "fold"}, {"measurement": "increase in BM CFC recovery", "setting": "BM KSL cells [1]; EGF treatment, 72 hours following radiation exposure, vs TSF alone", "result": 3, "unit": "fold"}, {"measurement": "regeneration of BM stem and progenitor cells (CFC, CFUS12)", "setting": "BM KSL cells [1]; Example 1, 300 cGy KSL cells, 7 days with BaxFl+ endothelial cells with and without EGF", "result": "induced regeneration of BM stem and progenitor cells"}, {"measurement": "decreased Annexin+ KSL cells", "setting": "BM KSL cells [2]; C57B16 BM KSL, 300 cGy, cytokines plus 20 ng/ml EGF", "result": 2, "unit": "fold"}, {"measurement": "percentage of Annexin+ cells", "setting": "BM KSL cells [2]; irradiated BM KSL cells from Tie2Cre;Bak1-/-;BaxFl/- mice, EGF", "result": "further decreased"}, {"measurement": "cycling of BM KSL cells from Tie2Cre;Bak1-/-;BaxFl/- mice", "setting": "BM KSL cells [3]; 300 cGy in vitro, TSF + 20 ng/ml EGF, 72 hours, vs TSF", "result": "significantly decreased G0 cells and increased G2/S/M cells; also recorded: significantly increased the cycling"}, {"measurement": "KSL cells in G1", "setting": "BM KSL cells [3]; [6]", "result": 51, "unit": "%"}, {"measurement": "KSL cells in G2/S/M phase", "setting": "BM KSL cells [3]; [6]", "result": 31, "unit": "%"}, {"measurement": "KSL cells remaining in G0", "setting": "BM KSL cells [3]; [6]", "result": 17, "unit": "%"}, {"measurement": "decreased Annexin+ BM hematopoietic cells", "setting": "CD45+MECA- BM cells", "result": 4, "unit": "fold"}, {"measurement": "increase in Akt phosphorylation", "setting": "AKT-S473", "result": 50, "unit": "%"}]}]}
